Experimental data taken from patent US10329260B2, “Human plasma kallikrein inhibitors” (BioCryst Pharmaceuticals, Inc., priority 2014, dated 2019).

B1: C1-inhibitor (protein, UniProt P05155 23-500, looked up)
Plasma protease C1 inhibitor: NPNATSSSSQDPESLQDRGEGKVATTVISKMLFVEPILEVSSLPTTNSTTNSATKITANTTDEPTTQPTTEPTTQPTIQPTQPTTQLPTDSPTQPTTGSFCPGPVTLCSDLESHSTEAVLGDALVDFSLKLYHAFSAMKKVETNMAFSPFSIASLLTQVLLGAGENTKTNLESILSYPKDFTCVHQALKGFTTKGVTSVSQIFHSPDLAIRDTFVNASRTLYSSSPRVLSNNSDANLELINTWVAKNTNNKISRLLDSLPSDTRLVLLNAIYLSAKWKTTFDPKKTRMEPFHFKNSVIKVPMMNSKKYPVAHFIDQTLKAKVGQLQLSHNLSLVILVPQNLKHRLEDMEQALSPSVFKAIMEKLEMSKFQPTLLTLPRIKVTTSQDMLSIMEKLEFFDFSYDLNLCGLTEDPDLQVSAMQHQTVLELTETGVEAAAASAISVARTLLVFEVQQPFLFVLWDQQHKFPVFMGRVYDPRA

Legend:
[1] = molecular target: human plasma kallikrein (Homo sapiens (Human), UniProt P03952); assay: Plasma Kallikrein Activity Assay; type: biochemical; settings: 2 nM kallikrein, 80 μM chromogenic substrate S2302, 30° C., pH 7.8; Ki by Cheng-Prusoff equation
Experimental: Plasma Kallikrein Activity Assay.
The effect of compounds of the invention on human plasma kallikrein activity was determined using the chromogenic substrates (DiaPharma Group, Inc., West Chester, Ohio, USA). In these experiments, 2 nM kallikrein (Enzyme Research Laboratories, South Bend, Ind., USA) was incubated with 80 μM S2302 (H-D-Pro-Phe-Arg-p-nitroaniline) in the absence or presence of increasing concentrations of compounds of the invention in a final volume of 200 μL Tris-HCl buffer (200 mM NaCl; 2.5 mM CaCl2; 50 mM Tris-HCl, pH 7.8).
Data were analyzed using SigmaPlot software (Systat Software, Inc., San Jose, Calif., USA) (Four Parameter Logistic Curve).

[2] = tested on: patients with hereditary angioedema (HAE); settings: cited from earlier work
[3] = tested on: sepsis patients; settings: cited from earlier work
[4] = tested on: lipopolysaccharide (LPS)- or bacterial-induced sepsis in animals; settings: cited from earlier work
[5] = tested on: animal model of ischemic stroke; settings: cited from earlier work
[6] = tested on: mouse model of middle cerebral artery occlusion (MCAO); settings: cited from earlier work

Chain of human plasma kallikrein (P03952 whole entry partner, looked up): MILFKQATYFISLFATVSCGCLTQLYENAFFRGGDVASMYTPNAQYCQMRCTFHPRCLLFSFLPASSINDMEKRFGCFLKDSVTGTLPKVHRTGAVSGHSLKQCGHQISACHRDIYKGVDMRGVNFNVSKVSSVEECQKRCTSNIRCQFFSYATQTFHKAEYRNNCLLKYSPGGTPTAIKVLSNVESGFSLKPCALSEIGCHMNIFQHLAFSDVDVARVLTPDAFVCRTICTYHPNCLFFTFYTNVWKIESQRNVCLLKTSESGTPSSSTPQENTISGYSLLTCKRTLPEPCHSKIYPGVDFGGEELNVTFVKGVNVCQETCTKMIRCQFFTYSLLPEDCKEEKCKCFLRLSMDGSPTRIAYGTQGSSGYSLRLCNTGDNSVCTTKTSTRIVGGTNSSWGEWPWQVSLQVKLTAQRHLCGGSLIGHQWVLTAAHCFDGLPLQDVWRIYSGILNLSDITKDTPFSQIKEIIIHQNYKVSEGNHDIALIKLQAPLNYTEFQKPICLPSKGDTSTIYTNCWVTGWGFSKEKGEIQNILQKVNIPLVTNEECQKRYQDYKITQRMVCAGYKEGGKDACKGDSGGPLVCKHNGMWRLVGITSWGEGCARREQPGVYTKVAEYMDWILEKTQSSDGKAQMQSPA
Chain of human plasma kallikrein (P03952 whole entry, looked up): as the sequence (P03952 whole entry partner, looked up) above

Molecule	Ki [1] [nM]	further results
NCc1cccc(-n2nc(C(F)(F)F)cc2C(=O)Nc2cccc(C(NC3CCCCC3)c3ccccc3)c2)c1 (centres unmarked) [Compound 185b, 1-(3-(Aminomethyl)phenyl)-N-(3-((cyclohexylamino)(phenyl)methyl)phenyl)-3-(trifluoromethyl)-1H-pyrazole-5-carboxamide]	> 100	–
NCc1cccc(-n2nc(C(F)(F)F)cc2C(=O)Nc2cccc(C(NCc3ccncc3)c3ccccc3)c2)c1 (centres unmarked) [Compound 186b, 1-(3-(Aminomethyl)phenyl)-N-(3-(phenyl((pyridin-4-ylmethyl)amino)methyl)phenyl)-3-(trifluoromethyl)-1H-pyrazole-5-carboxamide]	> 100	–
CC(C)(C)CNC(c1ccccc1)c1cccc(NC(=O)c2cc(C(F)(F)F)nn2-c2cccc(CN)c2)c1 (centres unmarked) [Compound 187b, 1-(3-(Aminomethyl)phenyl)-N-(3-((neopentylamino)(phenyl)methyl)phenyl)-3-(trifluoromethyl)-1H-pyrazole-5-carboxamide]	> 100	–
NCc1cccc(-n2nc(C(F)(F)F)cc2C(=O)Nc2cccc(C(NCc3ccc(N)cc3)c3ccccc3)c2)c1 (centres unmarked) [Compound 189b, N-(3-(((4-Aminobenzyl)amino)(phenyl)methyl)phenyl)-1-(3-(aminomethyl)phenyl)-3-(trifluoromethyl)-1H-pyrazole-5-carboxamide]	> 100	–
CSCCNC(c1ccccc1)c1cccc(NC(=O)c2cc(C(F)(F)F)nn2-c2cccc(CN)c2)c1 (centres unmarked) [Compound 190b, 1-(3-(aminomethyl)phenyl)-N-(3-(((2-(methylthio)ethyl)amino)(phenyl)methyl)phenyl)-3-(trifluoromethyl)-1H-pyrazole-5-carboxamide]	> 100	–
NCc1cccc(-n2nc(C(F)(F)F)cc2C(=O)Nc2cccc(C(NCCCO)c3ccccc3)c2)c1 (centres unmarked) [Compound 191b, 1-(3-(Aminomethyl)phenyl)-N-(3-(((3-hydroxypropyl)amino)(phenyl)methyl)phenyl)-3-(trifluoromethyl)-1H-pyrazole-5-carboxamide]	> 100	–
NCc1cccc(-n2nc(C(F)(F)F)cc2C(=O)Nc2cccc(C(NCC3CC3)c3ccccc3Cl)c2)c1 (centres unmarked) [Compound 194f, 1-(3-(aminomethyl)phenyl)-N-(3-((2-chlorophenyl)((cyclopropylmethyl)amino)methyl)phenyl)-3-(trifluoromethyl)-1H-pyrazole-5-carboxamide]	0.1 to 50	–
CC(C)(C)c1ccc(C(NCC2CC2)c2cccc(NC(=O)c3cc(C(F)(F)F)nn3-c3cccc(CN)c3)c2)cc1 (centres unmarked) [Compound 203f, 1-(3-(aminomethyl)phenyl)-N-(3-((4-(tert-butyl)phenyl)((cyclopropylmethyl)amino)methyl)phenyl)-3-(trifluoromethyl)-1H-pyrazole-5-carboxamide]	> 100	–
Nc1n[nH]c2ccc(-n3nc(C(F)(F)F)cc3C(=O)Nc3cc(C(NCC4CC4)c4ccccc4)ccc3F)cc12 (centres unmarked) [Compound 224b, 1-(3-amino-1H-indazol-5-yl)-N-(5-((cyclopropylmethylamino)(phenyl)methyl)-2-fluorophenyl)-3-(trifluoromethyl)-1H-pyrazole-5-carboxamide]	> 100	–
Nc1ncnc2ccc(-n3nc(C(F)(F)F)cc3C(=O)Nc3cc(C(NCC4CC4)c4ccccc4)ccc3F)cc12 (centres unmarked) [Compound 226a, 1-(4-aminoquinazolin-6-yl)-N-(5-((cyclopropylmethylamino)(phenyl)methyl)-2-fluorophenyl)-3-(trifluoromethyl)-1H-pyrazole-5-carboxamide]	> 100	–
NC(N)=NCCC[C@@H](N)C(=O)N[C@@H](CCCN=C(N)N)C(=O)N1CCC[C@H]1C(=O)N1C[C@H](O)C[C@H]1C(=O)NCC(=O)N[C@@H](Cc1cccs1)C(=O)N[C@@H](CO)C(=O)N1Cc2ccccc2C[C@@H]1C(=O)N1[C@H](C(=O)N[C@@H](CCCN=C(N)N)C(=O)O)C[C@@H]2CCCC[C@@H]21 [Icatibant]	–	efficacy in treating HAE ([2]; HAE): effective
Cl-inhibitor	–	clinical outcome in sepsis patients [3]: Clinical improvement; lesions [4]: reduce; vascular permeability in multiple organs [4]: reduce
H-D-Pro-Phe-Arg-chloromethylketone [reference compound]	–	lesions [4]: reduce
ecallantide [DX-88]	–	brain edema [5]: reduced; infarct volume [5]: reduced; neurological deficits [5]: reduced; edema in patients with hereditary angioedema ([2]; patients with HAE): alleviates edema
B1	–	infarct size [6]: reduced
